What was measured:
[1] = system: serotonin (1a, 1b, 2a, 2c and 7 receptors); test: Serotonin receptor cAMP assay (Multispan, HTRF); type: cell-based, Human; conditions: percentage relative response vs 10 μM forskolin; serotonin control; FIG. 1
Protocol: Compounds 005, 008 and 018 were assayed using a serotonin (1a, 1b, 2a, 2c and 7 receptors) cAMP assay, provided by Multispan. The reference used was 10 μM forskolin (a cAMP activator) to calculate the percentage relative response, serotonin was used as the control. The results can be seen in FIG. 1.
cAMP Gs dynamic kit—cisbio—cat. No. 62AM4PEC
MULTISCREEN™ HEK293T Cell Line Stably Expressing Human 5-HT1A Receptor, Catalog DC1319a
MULTISCREEN™ HEK293T Cell Line Stably Expressing Human 5-HT1B Receptor, Catalog DC1320a
(§1) MULTISCREEN™ CHO-K1 Cell Line Stably Expressing Human 5-HT2A Receptor, Catalog DC1324-1
(§2) MULTISCREEN™ CHO-K1 Cell Line Stably Expressing Human 5-HT2C Receptor, Catalog DC1326-1
MULTISCREEN™ HEK293T Cell Line Stably Expressing Human 5-HT7 Receptor, Catalog DC1334

[2] = system: serotonin (2a, 2b and 2c receptors); test: Serotonin receptor inositol phosphate 1 (IP1) assay (Multispan); type: cell-based, Human; conditions: percentage relative response vs 1 μM serotonin; FIG. 2
Protocol: Compounds 005, 008 and 018 were assayed using a serotonin (2a, 2b and 2c receptors) inositol phosphate 1 (IP1) assay, provided by Multispan. The reference used was 1 μM serotonin to calculate the percentage relative response. The results can be seen in FIG. 2.
IP-One Gq kit—cisbio—cat. No. 62IPAPEB
as §1
MULTISCREEN™ CHO-K1 Cell Line Stably Expressing Human 5-HT2B Receptor, Catalog DC1325-1
as §2

5-HT2C Receptor = molecular target: T1, 5-HT2C Receptor (Homo sapiens, UniProt P28335); test: Serotonin calcium (Ca2+) assay, 2c receptor; type: cell-based; conditions: percentage relative response vs 10 μM serotonin, RLU; FIG. 3
T1 construct: host or cells: CHO-K1
T1 sequence (P28335 33-458): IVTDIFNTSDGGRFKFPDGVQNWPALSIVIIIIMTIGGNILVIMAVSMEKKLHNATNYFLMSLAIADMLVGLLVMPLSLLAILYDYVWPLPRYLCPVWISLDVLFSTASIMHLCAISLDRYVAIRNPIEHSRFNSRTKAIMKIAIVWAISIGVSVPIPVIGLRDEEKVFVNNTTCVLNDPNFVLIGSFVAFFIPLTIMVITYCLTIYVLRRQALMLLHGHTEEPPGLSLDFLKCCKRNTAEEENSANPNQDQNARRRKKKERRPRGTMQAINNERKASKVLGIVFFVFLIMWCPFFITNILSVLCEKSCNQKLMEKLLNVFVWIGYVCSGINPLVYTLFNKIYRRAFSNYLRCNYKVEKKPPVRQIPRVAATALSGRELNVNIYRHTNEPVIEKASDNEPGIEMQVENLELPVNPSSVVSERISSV
Protocol: Compounds 005, 008 and 018 were assayed using a serotonin (2a, 2b and 2c receptors) calcium (Ca^2+) assay, provided by Multispan. The reference used was 10 μM serotonin to calculate the percentage relative response in relative light units (RLU). The results can be seen in FIG. 3. Some activity for compound 005 in the 2c receptor assay was detected.
FLIPR calcium 6 assay explorer kit—VWR—cat. No. MLDVR8190
as §2

HTR2A = molecular target: T2, HTR2A (Homo sapiens, UniProt P28223); test: B-arrestin assay (DiscoverX PathHunter), 2a receptor; type: cell-based; conditions: percentage relative response vs 10 μM serotonin; FIG. 4
T2 construct: host or cells: U2OS
Protocol: (§3) Compounds 005, 008 and 018 were assayed using a serotonin (1a, 1b, 2a and 2c receptors) B-arrestin assay, provided by DiscoverX. The reference used was 10 μM serotonin to calculate the percentage relative response. The results can be seen in FIG. 4. […] The compounds were also assayed in a serotonin 2b receptor B-arrestin assay, the results of which can be seen in FIG. 5.
HTR2A PathHunter® eXpress HTR2A U2OS β-Arrestin GPCR Assay 93-0401E3CP19M 200 dp (2×96-well)

HTR2C = molecular target: T3, HTR2C (Homo sapiens, UniProt P28335); test: B-arrestin assay (DiscoverX PathHunter), 2c receptor; type: cell-based; conditions: percentage relative response vs 10 μM serotonin; FIG. 4
T3 construct: host or cells: U2OS
T3 sequence (P28335 33-458): T1 sequence (P28335 33-458)
Protocol: as §3
HTR2C PathHunter® eXpress HTR2C U2OS β-Arrestin GPCR Assay 93-0289E3CP3M 200 dp (2×96-well)

T2 sequence (P28223 whole entry): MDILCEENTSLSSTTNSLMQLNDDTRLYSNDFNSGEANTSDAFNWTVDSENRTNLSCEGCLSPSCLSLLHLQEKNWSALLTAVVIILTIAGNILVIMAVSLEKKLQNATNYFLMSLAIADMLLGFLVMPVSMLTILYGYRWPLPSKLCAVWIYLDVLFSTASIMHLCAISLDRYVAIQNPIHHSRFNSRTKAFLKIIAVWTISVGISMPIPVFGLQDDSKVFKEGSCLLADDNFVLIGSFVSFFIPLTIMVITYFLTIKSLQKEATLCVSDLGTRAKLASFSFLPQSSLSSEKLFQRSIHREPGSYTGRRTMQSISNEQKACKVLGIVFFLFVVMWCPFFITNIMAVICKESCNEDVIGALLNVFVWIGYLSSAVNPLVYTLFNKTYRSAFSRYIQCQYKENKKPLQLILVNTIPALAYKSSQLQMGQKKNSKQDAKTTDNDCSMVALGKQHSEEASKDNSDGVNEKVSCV

CCN(C)CCc1c[nH]c2cccc(OC(=O)Nc3ccccc3)c12 [Compound 005, (S)-ethyl(methyl)(2-{4-[(phenylcarbam-oyl)oxy]-1H-indol-3-yl}ethyl)azanium]
cAMP assay result (activation of the cAMP pathway) [1]: may have some activation of the cAMP pathway | IP1 assay result (response curves) [2]: incomplete response curves in this assay, showing agonistic activity | Ca2+ assay activity, 2c receptor (5-HT2C Receptor): Some activity | B-arrestin assay activity, 2a receptor (HTR2A): Some activity | B-arrestin assay activity, 2c receptor (HTR2C): appeared to have activity

CCN(C)CCc1c[nH]c2cccc(Oc3ccccn3)c12 [Compound 008, (S)-ethyl(methyl){2-[4-(pyridin-2-yloxy)-1H-indol-3-ylethyl}-azanium]
IP1 assay result (response curves) [2]: incomplete response curves in this assay, showing agonistic activity | B-arrestin assay activity, 2a receptor (HTR2A): Some activity

CC(C)N(C)[C@H](C)Cc1c[nH]c2ccccc12 [Compound 018, (R)-[(2R)-1-(1H-indol-3-yl)propan-2-yl](methyl)(propan-2-yl)azanium]
IP1 assay result (response curves) [2]: incomplete response curves in this assay, showing agonistic activity | B-arrestin assay activity, 2a receptor (HTR2A): Some activity
